Results: US20070298994A1, “Use of 3-Mercapto-3-Methyl-Hexan-1-Ol for Use as Malodour Standard” (SYMRISE GMBH & CO. KG, priority 2004, published 2007)

Experiments:
[1] = Odour threshold value in air on a dynamic olfactometer; conditions: for odour threshold value in air: dynamic olfactometer, mean of 24 measured values (8 trained assessors, three passes), refers to the pure substance
Experimental: The odour threshold values in air were determined for the substance (E)-3-methyl-2-hexenoic acid also occurring in sweat and 3-mercapto-3-methyl-hexan-1-ol recently found in sweat.
The odour threshold value denotes the concentration of an olfactorily perceptible substance in air at which this can be distinguished from the odourless ambient air.
Determination is carried out on a dynamic olfactometer. A sample of 20 μl each of dilute solutions of the components is placed in a container with 7 l air. The samples in the olfactometer are diluted clearly below the odour threshold by defined addition of odourless air. In the olfactometer, the concentrations in the sample air are increased little by little until all the assessors have characterised a perception. A group of 8 trained assessors determines the concentration of the samples to be distinguished in odour from air on three passes each so that the mean value of 24 measured values leads to the respective concentrations. The (E)-3-methyl-2-hexenoic acid is measured at 1% and the 3-mercapto-3-methyl-hexan-1-ol at 0.1% in odourless dipropylene glycol. The different dilutions were taken into account for calculating the threshold values. The threshold values refer to the pure substances. The threshold value of the (E)-3-methyl-2-hexenoic acid was determined at 15.1 ng/l air. The threshold value for the 3-mercapto-3-methyl-hexan-1-ol was determined at 0.015 ng/l air. All assessors evaluated the threshold value of 3-mercapto-3-methyl-hexan-1-ol lower than (E)-3-methyl-2-hexenoic acid in all passes.

[2] = Raw material test against sweat odour (masking of malodour standard, assessor panel); conditions: for Increase In intensity / Odour reduction value: Table 1, 15 h at approx. 20° C., scale 1 to 9, malodour standard mixture = 6, mean of at least 8 assessors
[3] = Application test in the formulations (smelling strips, assessor panel); design: Malodour reduction value: scale not given here; conditions: smelling strip, 1 μl 3-mercapto-3-methyl-hexan-1-ol solution (0.001% in DPG), at least 12 experts
Experimental: Mixtures A-C and the fragrances of Table 4 were incorporated in the formulations of Examples 3-12 as perfume oil. […] The coding smelling strips were evaluated sensorily by a group of assessors of at least 12 experts.

[4] = Table 2 (raw materials without adequate malodour-reducing action), 1 μl fragrance + 5 μl 3-mercapto-3-methyl-hexan-1-ol (0.1% in DPG) in 7 l air, 15 h, scale 1 to 9, standard = 6
[5] = Table 4, tests with the mixtures (Example 2), according to the raw material test method
[6] = in EXAMPLE 3: ROLL-ON DEODORANT GEL
[7] = in EXAMPLE 6: GEL AIR FRESHENER
[8] = in EXAMPLE 7: AEROSOL DEODORANT
[9] = in EXAMPLE 9: HAIR SETTING LOTION
[10] = 1 μl fragrance + 5 μl 3-mercapto-3-methyl-hexan-1-ol (0.1% in DPG) in 7 l air
[11] = Table 3 (adequate malodour-reducing action but significant increase in intensity), 1 μl fragrance + 5 μl 3-mercapto-3-methyl-hexan-1-ol (0.1% in DPG) in 7 l air, 15 h, scale 1 to 9, standard = 6

## CCCC(C)(S)CCO (centres unmarked) [3-mercapto-3-methyl-hexan-1-ol]
[1]
  odour threshold value in air: 0.015 ng/l air
[1]; odour threshold values in air
  factor by which threshold value is lower than that of (E)-3-methyl-2-hexenoic acid: 1000

## CCC/C(C)=C/C(=O)O [(E)-3-methyl-2-hexenoic acid, reference compound]
[1]
  odour threshold value in air: 15.1 ng/l air

## CCOC(C)=O [ETHYL ACETATE]
[2]; [4]
  Increase in intensity: −0.9
  Malodour reduction value: 1.1
[2]; [5]
  Increase in intensity: −1.1
  Malodour reduction value: 1.1
[3]; [6]
  Increase in intensity: −0.1
  Malodour reduction value: 0.5
[3]; in EXAMPLE 4: W/O CREAM
  Increase in intensity: 0.0
  Malodour reduction value: 1.0
[3]; in EXAMPLE 5: O/W LOTION
  Increase in intensity: 0.5
  Malodour reduction value: 0.5
[3]; [7]
  Increase in intensity: 0.5
  Malodour reduction value: 0.8
[3]; [8]
  Increase in intensity: −0.5
  Malodour reduction value: 1.1
[3]; in EXAMPLE 8: FOOT CREAM
  Increase in intensity: 0.5
  Malodour reduction value: 0.8
[3]; [9]
  Increase in intensity: −0.5
  Malodour reduction value: 1.2
[3]; in EXAMPLE 10: CARE MASK
  Increase in intensity: 0.8
  Malodour reduction value: 1.2
[3]; in EXAMPLE 11: SKIN OIL
  Increase in intensity: −0.5
  Malodour reduction value: 0.3
[3]; in EXAMPLE 12: OINTMENT
  Increase in intensity: −0.6
  Malodour reduction value: 0.0

## CCCCCC1COCCC1OC(C)=O (centres unmarked) [TETRAHYDRO-3-PENTYL-PYRAN-4-OL ACETATE]
[2]; [10]
  Increase In intensity: 1.5
  Odour reduction value: 4.5
[2]; [4]
  Increase in intensity: 1.0
  Malodour reduction value: 2.0

## CCC(C)(O)CCCC(C)C (centres unmarked) [TETRAHYDROLINALOOL, reference compound]
[2]; [11]
  Increase in intensity: 2.3
  Malodour-reduction value: 3.0

## CCC(C)CCCC(C)(C)O (centres unmarked) [TETRAHYDROMYRCENOL, reference compound]
[2]; [11]
  Increase in intensity: 2.2
  Malodour-reduction value: 4.0

## C/C=C(\C)C(=O)OC/C=C(\C)CCC=C(C)C [TIGLIC ACID GERANYL ESTER]
[2]; [10]
  Increase In intensity: 0.8
  Odour reduction value: 4.5

## CC(C)[C@H]1CC[C@H](O)CC1 [TRANS-4-ISOPROPYL CYCLOHEXANOL]
[2]; [10]
  Increase In intensity: 1.0
  Odour reduction value: 4.1

## CCCCCCCCCCCC#N [UNDECYL CYANIDE]
[2]; [10]
  Increase In intensity: 1.6
  Odour reduction value: 3.3

## COc1cc(C=O)ccc1O [VANILLIN, reference compound]
[2]; [4]
  Increase in intensity: 1.0
  Malodour reduction value: 0.0

## CC1CC(C)(c2ccccc2)OC(C)O1 (centres unmarked) [reference compound]
[2]
  Increase in intensity: −0.7
  Malodour reduction value: 1.1

## CCCCCC(C=O)=Cc1ccccc1 [reference compound]
[2]; [4]
  Increase in intensity: 1.0
  Malodour reduction value: 0.0
